From paper PMC5908784, “Extracellular loops 2 and 3 of the calcitonin receptor selectively modify agonist binding and efficacy” (Biochemical Pharmacology, 2018)
Residue numbers refer to the chain shown, from its start. Where a SMILES comes first, the peptide text is derived from it. Bridges are numbered along the chain shown (N, C = ends).

Assays:
Assay type in all cases: cell-based
hCTR V283A = biological target: T1, hCTR V283A (Homo sapiens, UniProt P30988, V283A); assay: IP1 accumulation; conditions: mean ± S.E.M.; for Emax: IP1 maximal response, SEM
T1 construct: expressed in transfected cells
T1 sequence (P30988 25-474 V283A): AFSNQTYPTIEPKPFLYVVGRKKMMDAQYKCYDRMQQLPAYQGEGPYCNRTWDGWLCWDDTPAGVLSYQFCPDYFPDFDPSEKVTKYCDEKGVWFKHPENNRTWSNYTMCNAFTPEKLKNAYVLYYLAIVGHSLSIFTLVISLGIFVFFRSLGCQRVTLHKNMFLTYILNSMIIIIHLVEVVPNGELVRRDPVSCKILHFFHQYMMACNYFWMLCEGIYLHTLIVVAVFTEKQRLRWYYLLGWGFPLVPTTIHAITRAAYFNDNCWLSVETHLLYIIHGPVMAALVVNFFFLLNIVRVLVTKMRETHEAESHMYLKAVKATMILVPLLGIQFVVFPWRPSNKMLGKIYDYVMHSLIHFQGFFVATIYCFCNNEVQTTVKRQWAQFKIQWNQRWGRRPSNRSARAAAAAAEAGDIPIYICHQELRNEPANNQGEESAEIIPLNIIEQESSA
In short: (§1)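 HTRF IP-One readout of IP1 after 60 min ligand stimulation (LiCl present), cells seeded overnight. Normalized to 100 μM ATP max response. EC50/Emax via 3-parameter logistic curve fit.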

hCTR V375A = biological target: T2, hCTR V375A (Homo sapiens, UniProt P30988, V375A); assay: IP1 accumulation; conditions: mean ± S.E.M.; for Emax: IP1 maximal response, SEM
T2 construct: c-Myc (N); expressed in transfected cells
T2 sequence (P30988 25-474 V375A): T1 sequence (P30988 25-474 V283A) with A259V, V351A
In short: as §1

hCTR K366A = biological target: T3, hCTR K366A (Homo sapiens, UniProt P30988, K366A); assay: IP1 accumulation; conditions: mean ± S.E.M.; for Emax: IP1 maximal response, SEM
T3 construct: c-Myc (N); expressed in transfected cells
T3 sequence (P30988 25-474 K366A): T1 sequence (P30988 25-474 V283A) with A259V, K342A
In short: as §1

hCTR P363A = biological target: T4, hCTR P363A (Homo sapiens, UniProt P30988, P363A); assay: IP1 accumulation; conditions: mean ± S.E.M.; for Emax: IP1 maximal response, SEM
T4 construct: expressed in transfected cells
T4 sequence (P30988 25-474 P363A): T1 sequence (P30988 25-474 V283A) with A259V, P339A
In short: as §1

hCTR W290A = biological target: T5, hCTR W290A (Homo sapiens, UniProt P30988, W290A); assay: ERK1/2 phosphorylation; conditions: CV1-FlpIn cells, mean ± S.E.M.; for Emax: pERK maximal response
T5 construct: c-Myc (N); expressed in transfected cells
T5 sequence (P30988 25-474 W290A): T1 sequence (P30988 25-474 V283A) with A259V, W266A
In short: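 EC50 and Emax values derive from three-parameter logistic curves and combine functional affinity, efficacy and stimulus-response coupling. Responses are normalized to 10% FBS (6 min).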

[1] = IP1, CV1-FlpIn cells, 60 min, LiCl

EC50 (hCTR P363A; [1]) [nM]	EC50 (hCTR V283A; [1]) [nM]	EC50 (hCTR V375A; [1]) [nM]	EC50 (hCTR K366A; [1]) [nM]	EC50 (hCTR W290A; pERK, three-parameter logistic fit) [nM]	SMILES	Emax (hCTR V283A) [%]	Emax (hCTR V375A) [%]	Emax (hCTR K366A) [%]	Emax (hCTR P363A) [%]	Emax (hCTR W290A) [%]
–	–	–	–	–	CC[C@H](C)[C@H](NC(=O)[C@H](C)NC(=O)[C@@H](NC(=O)[C@H](CCC(N)=O)NC(=O)[C@@H]1CCCN1C(=O)[C@H](Cc1ccccc1)NC(=O)[C@@H](NC(=O)[C@H](Cc1c[nH]cn1)NC(=O)[C@H](Cc1ccccc1)NC(=O)[C@H](CCCCN)NC(=O)[C@H](CC(N)=O)NC(=O)[C@H](Cc1ccccc1)NC(=O)[C@H](CC(=O)O)NC(=O)[C@H](CCC(N)=O)NC(=O)[C@@H](NC(=O)[C@H](Cc1ccc(O)cc1)NC(=O)[C@@H](NC(=O)CNC(=O)[C@H](CC(C)C)NC(=O)[C@H](CCSC)NC(=O)[C@@H]1CSSC[C@H](N)C(=O)NCC(=O)N[C@@H](CC(N)=O)C(=O)N[C@@H](CC(C)C)C(=O)N[C@@H](CO)C(=O)N[C@@H]([C@@H](C)O)C(=O)N1)[C@@H](C)O)[C@@H](C)O)[C@@H](C)O)[C@@H](C)O)C(=O)NCC(=O)N[C@H](C(=O)NCC(=O)N[C@@H](C)C(=O)N1CCC[C@H]1C(N)=O)C(C)C [hCT]	67 ± 6	104 ± 6	121 ± 6	–	–
6.17	6.17	1.17	1.48	7.41	CSCC[C@H](NC(=O)CNC(=O)[C@H](CO)NC(=O)[C@H](Cc1ccccc1)NC(=O)[C@H](CCCNC(=N)N)NC(=O)[C@H](Cc1c[nH]cn1)NC(=O)[C@H](Cc1ccccc1)NC(=O)[C@H](CC(N)=O)NC(=O)[C@H](CC(N)=O)NC(=O)[C@H](CC(C)C)NC(=O)[C@H](CC(N)=O)NC(=O)[C@H](CCCNC(=N)N)NC(=O)[C@H](Cc1c[nH]c2ccccc12)NC(=O)[C@H](Cc1ccc(O)cc1)NC(=O)[C@H](C)NC(=O)[C@H](CO)NC(=O)[C@H](CC(C)C)NC(=O)[C@@H](NC(=O)[C@@H]1CSSC[C@H](N)C(=O)N[C@@H](CO)C(=O)N[C@@H](CC(N)=O)C(=O)N[C@@H](CC(C)C)C(=O)N[C@@H](CO)C(=O)N[C@@H]([C@@H](C)O)C(=O)N1)C(C)C)C(=O)NCC(=O)N[C@@H](Cc1ccccc1)C(=O)NCC(=O)N1CCC[C@H]1C(=O)N[C@@H](CCC(=O)O)C(=O)N[C@H](C(=O)N1CCC[C@H]1C(N)=O)[C@@H](C)O [pCT] (H-CSNLSTCVLSAYWRNLNNFHRFSGMGFGPETP-NH2; disulfide 1-7)	100 ± 5	100 ± 5	91 ± 6	73 ± 10	28 ± 3
–	–	–	–	–	CC(C)C[C@H](NC(=O)[C@H](CCCCN)NC(=O)CNC(=O)[C@H](CC(C)C)NC(=O)[C@@H](NC(=O)[C@@H]1CSSC[C@H](N)C(=O)N[C@@H](CO)C(=O)N[C@@H](CC(N)=O)C(=O)N[C@@H](CC(C)C)C(=O)N[C@@H](CO)C(=O)N[C@@H]([C@@H](C)O)C(=O)N1)C(C)C)C(=O)N[C@@H](CO)C(=O)N[C@@H](CCC(N)=O)C(=O)N[C@@H](CCC(=O)O)C(=O)N[C@@H](CC(C)C)C(=O)N[C@@H](Cc1c[nH]cn1)C(=O)N[C@@H](CCCCN)C(=O)N[C@@H](CC(C)C)C(=O)N[C@@H](CCC(N)=O)C(=O)N[C@H](C(=O)N[C@@H](Cc1ccc(O)cc1)C(=O)N1CCC[C@H]1C(=O)N[C@@H](CCCNC(=N)N)C(=O)N[C@H](C(=O)N[C@@H](CC(N)=O)C(=O)N[C@H](C(=O)NCC(=O)N[C@@H](CO)C(=O)NCC(=O)N[C@H](C(=O)N1CCC[C@H]1C(N)=O)[C@@H](C)O)[C@@H](C)O)[C@@H](C)O)[C@@H](C)O [sCT]	115 ± 6	87 ± 5	93 ± 5	86 ± 9	38 ± 4
